From PubChem BioAssay (NCI)
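Protocol summary: plate cells (96-well), add compound at 5 concentrations, incubate 48 h, interpolate endpoints linearly. At the GI50, growth is halved. Definition used: TGI = concentration required for complete inhibition of growth.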

How the values were obtained:
Assay in all cases: NCI-60 cell line screen, 48 h
LOX IMVI melanoma = system: LOX IMVI melanoma
SF-539 CNS = system: SF-539 CNS
M14 melanoma = system: M14 melanoma
PC-3 prostate = system: PC-3 prostate
OVCAR-8 ovarian = system: OVCAR-8 ovarian
NCI-H460 lung = system: NCI-H460 lung
SF-268 CNS = system: SF-268 CNS
OVCAR-3 ovarian = system: OVCAR-3 ovarian
MOLT-4 leukemia = system: MOLT-4 leukemia
BT-549 breast = system: BT-549 breast

Compound	GI50 (LOX IMVI melanoma)	TGI (LOX IMVI melanoma)	GI50 (SF-539 CNS)	TGI (SF-539 CNS)	GI50 (M14 melanoma)	TGI (M14 melanoma)	GI50 (PC-3 prostate)	TGI (PC-3 prostate)	GI50 (OVCAR-8 ovarian)	TGI (OVCAR-8 ovarian)	GI50 (NCI-H460 lung)	TGI (NCI-H460 lung)	GI50 (SF-268 CNS)	TGI (SF-268 CNS)	GI50 (OVCAR-3 ovarian)	TGI (OVCAR-3 ovarian)	TGI (MOLT-4 leukemia)	GI50 (MOLT-4 leukemia)	GI50 (BT-549 breast)	TGI (BT-549 breast)
Cc1ccc(S(=O)(=O)N(C)C)cc1[N+](=O)[O-]	> 100 µM	> 100 µM	> 100 µM	> 100 µM	> 100 µM	> 100 µM	> 100 µM	> 100 µM	> 100 µM	> 100 µM	> 100 µM	> 100 µM	> 100 µM	> 100 µM	> 100 µM	> 100 µM				
C=C1C(=O)O[C@@H]2C[C@]3(C)[C@@H](C[C@H]12)[C@](C)(O)CC[C@@H]3O		> 100 µM		> 100 µM		> 100 µM				> 100 µM		68.9 µM		> 100 µM		> 100 µM	> 100 µM			
COc1ccc(-c2cc(C(=O)Nc3cccc(C(F)(F)F)c3)[nH]c(=S)n2)cc1		> 100 µM		> 100 µM		> 100 µM				> 100 µM		> 100 µM		> 100 µM		> 100 µM	> 100 µM			
Cn1ncc2c(Nc3ccc(Br)cc3)nc(Nc3ccc(Br)cc3)nc21	1.77 µM	3.36 µM	3.17 µM	10.8 µM	2.09 µM	4.63 µM			4.15 µM	63.5 µM	2.23 µM	5.23 µM	5.11 µM	15.8 µM	3.95 µM	12.3 µM	5.23 µM	0.346 µM	4.68 µM	19.4 µM
O=C1CCC2(c3ccc(F)cc3)Nc3ccccc3N12 (stereo not drawn)		> 100 µM		> 100 µM		> 100 µM				> 100 µM		> 100 µM		> 100 µM		> 100 µM	> 100 µM			
COC(=O)C(=O)C(C(=O)C(=O)Nc1ccccc1C(=O)OC)c1nc2ccc(C(=O)c3ccccc3)cc2[nH]c1=O (stereo not drawn)		> 100 µM		> 100 µM		> 100 µM		> 100 µM		> 100 µM		> 100 µM		> 100 µM		> 100 µM				> 100 µM
O=C(Cc1ccccc1)Oc1ccc2c(-c3ccccc3)c(C(=O)Nc3ccc(Cl)cc3)c(=O)oc2c1		> 100 µM		> 100 µM		> 100 µM				> 100 µM		> 100 µM		> 100 µM		> 100 µM	> 100 µM			
O=CC1=CCCC2(C1)OCCO2		> 100 µM		> 100 µM		> 100 µM				> 100 µM		> 100 µM		> 100 µM		> 100 µM				
COc1ccc(-c2cc3c4c(nc5ccccc5c4c2)CC(c2cc(OC)c(OC)c(OC)c2)O3)cc1 (stereo not drawn)	1.92 µM	6.81 µM	1.44 µM	2.95 µM	2.96 µM	28.7 µM			2.71 µM	> 100 µM	1.46 µM	4.79 µM	1.72 µM	5.48 µM	1.86 µM	4.28 µM	> 100 µM	> 100 µM	2.92 µM	31.7 µM
COC(=O)/C(=C/c1ccc(OC)cc1)C(C(=O)O)=C(C)C		> 100 µM		> 100 µM		> 100 µM				> 100 µM		> 100 µM		> 100 µM		> 100 µM	> 100 µM			
CN(C)CCNC(=O)c1ccc2ccc3cccnc3c2n1		49.8 µM		33.7 µM		33.1 µM				> 100 µM		35.9 µM		54.5 µM		99 µM	32.3 µM			
CCCCOC1CC2(c3ccc(OC)cc3)C(=O)c3ccccc3N2O1 (stereo not drawn)		> 10 µM		> 100 µM		> 100 µM				> 100 µM		> 10 µM		> 100 µM		> 100 µM	61.5 µM			
Cc1oc2ccccc2c(=O)c1Cn1nnc2ccccc21		> 100 µM		> 100 µM		> 100 µM		> 100 µM		> 100 µM		> 100 µM		> 100 µM		79.7 µM	> 100 µM			
O=C(NC1CCCCC1)c1c(O)[nH]c(=S)[nH]c1=O		> 100 µM		> 100 µM		> 100 µM				> 100 µM		> 100 µM		> 100 µM		> 100 µM	> 100 µM			
CC(C)(C)C1CC[C@H]2c3c([nH]c4ccc(Br)cc34)[C@H]3C(=O)N(c4ccccc4)C(=O)[C@H]3[C@H]2C1 (stereo partly drawn)		> 100 µM				> 100 µM				11.8 µM		38.9 µM		95.1 µM		> 100 µM	71.6 µM			
[Cu+2].[Cu+2].[O-]c1ccccc1C=Nc1ccccc1[O-].[O-]c1ccccc1C=Nc1ccccc1[O-]	4.12 µM	17.5 µM	13.2 µM	25.9 µM	4.45 µM	15.3 µM			8.16 µM	31.6 µM			11.8 µM	24.2 µM	5.56 µM	15.8 µM	9.97 µM	2.99 µM		
COc1ccc(CNc2cc(OC)cc(OC)c2)cc1		> 100 µM	> 90.2 µM	> 100 µM		> 100 µM				> 100 µM		> 100 µM		> 100 µM		> 100 µM	> 100 µM			
O=C(NO)c1ccc(C(=O)NO)cc1		> 100 µM		> 100 µM		> 100 µM		> 100 µM		> 100 µM		> 100 µM		> 100 µM		> 100 µM	92.9 µM			
C=CCN1C(=O)CS/C1=N\NC(=O)c1c(C)nc2sccn12		> 100 µM		> 100 µM						> 100 µM		> 100 µM		> 100 µM		> 100 µM	> 100 µM			
CN(C(=O)C1CCCCC1)c1ccccc1I(=O)=O	40.2 µM	> 100 µM	39.2 µM	> 100 µM					74.8 µM	> 100 µM	48 µM	> 100 µM	36.8 µM	> 100 µM	30.5 µM	> 100 µM	51.8 µM	18 µM	42.4 µM	> 100 µM
